Reference: paper PMC8207694, “Nucleoside transporter-guided cytarabine-conjugated liposomes for intracellular methotrexate delivery and cooperative choriocarcinoma therapy” (Journal of Nanobiotechnology, 2021)

Key:
JEG-3 cells [1] = assay: In vitro cytotoxicity, MTT assay; type: cell-based; details: Homo sapiens; JEG-3, 48 h, MTX-equivalent
Procedure: (§1) The cytotoxicities of MTX formulations were assessed via MTT assay. The groups were as follows: MTX solution (free MTX), MTX plus DSPE-PEG2k-Cy (abbreviated as MTX + Cy-lipid, the molar ratio of Cy-lipid to MTX was about 1:5.0), Lipo@MTX, and Cy-Lipo@MTX. JEG-3 cells or Pricell-0051 cells were added to 96-well plates (1 × 10^4 cells/well). After 24 h, cells were rinsed using PBS and treated with MTX formulations (0.001–30 μg MTX-equivalent/mL) for 48 h at 37 °C [40]. Viability was assessed by adding 20 μL of MTT (5 mg/mL) per well for 4 h. Next, the medium was removed and formazan crystals were dissolved via the addition of 150 μL of DMSO. A microplate reader (Varioskan Flash 3001, Thermo Fisher Scientific, USA) was then used to assess absorbance at 490 nm.

Pricell-0051 cells = assay: In vitro cytotoxicity, MTT assay; type: cell-based; details: Homo sapiens; Pricell-0051, 48 h, MTX-equivalent
Procedure: as §1

JEG-3 cells [2] = assay: Cell cycle analysis (PI, flow cytometry); type: cell-based, human; details: 1 μg/mL MTX-equivalent, 24 h; control 5.44 ± 0.97%
Procedure: For cell cycle analysis, JEG-3 cells (10^5/well) were added to 6-well plates for 24 h and were then treated with culture medium or MTX formulation-contained culture medium at an equivalent MTX concentration (1 μg/mL) for another 24 h. Then, JEG-3 cells were collected (1000 rpm, 5 min) and fixed using 70% ethanol for 8 h at 4℃. After resuspended in PI/RNase Staining buffer for 30 min, the cell cycle was determined with flow cytometry.

JEG-3 cells [3] = assay: Apoptosis (FITC Annexin V, flow cytometry); type: cell-based, human; details: 1 μg/mL MTX-equivalent, 24 h; control 10.39 ± 2.78%
Procedure: Apoptosis of JEG-3 cells was detected using the FITC Annexin V Apoptosis Detection Kit I. The cells (10^5/well) were seeded in 6-well plates. Following culture for 24 h, cells were treated with culture medium or MTX formulation-contained culture medium at an equivalent MTX concentration (1 μg/mL) for another 24 h. All other protocols were conducted based on the provided directions. The cells were analyzed by flow cytometry.

JEG-3 cells [4] = assay: Mitochondrial transmembrane potential (JC-1, CLSM); type: cell-based, human; details: 1 μg/mL MTX-equivalent, 24 h
Procedure: Mitochondrial transmembrane potential changes induced by various MTX formulations were evaluated by the JC-1 probe. Briefly, JEG-3 cells were added to the confocal dish. Following culture for 24 h, the cells were treated with free MTX, MTX + Cy-lipid, Lipo@MTX, or Cy-Lipo@MTX at an equivalent MTX concentration (1 μg/mL) for 24 h. JC-1 solution was exchanged for cold PBS following two JC-1 staining buffer washes, after which samples were assessed by CLSM at λex (488 nm)/λem (530 nm) for green fluorescence and λex (525 nm)/λem (590 nm) for red fluorescence.

JEG-3 cells [5] = assay: Cell structure damage (bio-TEM); type: cell-based, human; details: 1 μg/mL MTX-equivalent, 24 h
Procedure: Bio-TEM was applied for observing the cell structure and mitochondrial damage effect induced by MTX formulations. Briefly, JEG-3 cells were seeded in a 6 cm dish. After culturing for 24 h, the cells were treated with free MTX, MTX + Cy-lipid, Lipo@MTX, or Cy-Lipo@MTX at an equivalent MTX concentration (1 μg/mL) for another 24 h. Then, cells were digested, centrifuged, and fixed with 2.5% glutaraldehyde solution at 4 °C for more than 4 h. Finally, the bio-TEM observation was performed after sample preparation.

[6] = Biodistribution of MTX in tumor-bearing mice; type: in vivo; details: 2 h post-treatment
Procedure: JEG-3 tumor-bearing mice were also used for organ distribution studies. Animal groups and dosage were consistent with pharmacokinetic studies. For bio-distribution studies of MTX formulations, three animals per group were sacrificed at 2, 8, and 24 h following treatment, and tumors, lungs, kidneys, hearts, livers, and spleens were isolated, weighed, and frozen. These tissues were then homogenized, spun down for 1 min, rested for 45 min, and combined with 100 µl of 10% trichloroacetic acid solution followed by vortexing for 1 min, adding 5 mL of acetonitrile, and incubating for 10 min. Samples were then spun down for 10 min at 6,000 rpm, and supernatants were isolated, combined with mobile phase, and passed through 0.22 µm membrane filters. Finally, HPLC was applied to estimate the drug content of samples.

JEG-3 tumor models [7] = assay: In vivo antitumor study; parameters: species or system BALB/c nude mice
Procedure: (§2) When tumors were 50–100 mm^3 in size, nude mice were intravenously administrated with saline or MTX formulations (free MTX, MTX + Cy-lipid, Lipo@MTX, or Cy-Lipo@MTX, 5 mg MTX-equivalent/kg body weight, each group contained 6 mice) on day 6, 9, 12, 14, 18, and 21. On the 24th day, the mice were sacrificed, and the tumors, as well as the main organs, were excised, weighed, washed three times using saline, and subjected to fixation with 10% neutral buffered formalin. The tumor tissues were collected for H&E, TUNEL, and Ki67 staining. […] The survival of large tumor-bearing mice (300–500 mm^3 in size) was analyzed via Kaplan–Meier analysis (each group contained 5 mice).

JEG-3 tumor models [8] = assay: Survival of large tumor-bearing mice (Kaplan-Meier); type: in vivo; details: mice bearing larger tumors 300-500 mm^3; saline 26 days
Procedure: as §2

[9] = Safety: body weight and H&E of primary organs during antitumor study; type: in vivo, mice
Procedure: Healthy mice were administered the Lipo@MTX or Cy-Lipo@MTX dispersion via tail vein (10 mg MTX-equivalent/kg body weight every three days) for five times (each group contained 3 mice). Saline was injected as a control. After the administration, blood biochemical indices were measured. During the in vivo antitumor studies, the body weight and activity status of mice in each group were monitored for evaluating the side effects of the MTX formulations. After in vivo antitumor studies, the primary organs of each group were harvested for H&E staining.

[10] = parameters: method as in PMID 22510625; details: liver damage, abdominal pain, gastrointestinal reactions, mucosal damage, bone marrow suppression; cited from earlier work
[11] = parameters: method as in PMID 28415433; details: cited from earlier work

CN(Cc1cnc2nc(N)nc(N)c2n1)c1ccc(C(=O)N[C@@H](CCC(=O)O)C(=O)O)cc1 [free MTX, Methotrexate]
IC50 (JEG-3 cells [1]): 19.6 mg/L
IC50 (Pricell-0051 cells): 32.2 mg/L
JEG-3 cells arrested at the S phase (JEG-3 cells [2]): 11.59 ± 1.53%
apoptotic percentage of JEG-3 cells (JEG-3 cells [3]): 18.03 ± 2.25%
effect on mitochondrial transmembrane potential (JC-1 red fluorescence) (JEG-3 cells [4]): a certain destructive effect on the MMP
cell structure and mitochondria (bio-TEM) (JEG-3 cells [5]): cell structure was intact and the cell boundary was clearly visible
main organs of MTX distribution [6]: found in the kidneys and liver
tumor volume (JEG-3 tumor models [7]; day 24, 5 mg MTX-equivalent/kg i.v., six treatments, saline 2211.35 ± 236.66): 1210.14 ± 285.62 mm^3
tumor weight (JEG-3 tumor models [7]; end of treatment cycle (day 24), saline 3.24 ± 0.60): 2.35 ± 0.32 g
median survival time (JEG-3 tumor models [8]): 28 days
H&E-stained slices of major organs ([9]; end of treatment): many edematous glomeruli
body weight change during treatment ([9]; tumor-bearing mice, 5 mg MTX-equivalent/kg): severe weight loss
incidence rate of adverse reactions during systemic administration [10]: more than 30%
solubility in acidic versus neutral solutions [11]: solubility of MTX in acidic solutions is greater than that in neutral solutions
